Test results as given in the supplement of paper PMC11451515.

Tested on: P12-Ichikawa
Assay: cell viability relative to DMSO control; higher = less cytotoxic
Settings: 48 h
Procedure, shortened: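 Viability is a per-plate percentage relative to DMSO wells, with cell-free wells as background. CellTiter-Glo One luminescence was read after 48 h at 37°C on 1536-well plates (5 μl) of NOMO1 or SEM (500 cells/well) or P12-Ichikawa (1000 cells/well) leukemia cells. The cells had been adapted for at least four passages in each medium and pin-dosed with library compounds in DMSO from 47 μM to 0.79 nM in 11 threefold steps.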

[1] = HPLM + 10% dialyzed FBS, 0.000781 µM
[2] = HPLM + 10% dialyzed FBS, 0.00234 µM
[3] = HPLM + 10% dialyzed FBS, 0.00702 µM
[4] = HPLM + 10% dialyzed FBS, 0.0211 µM
[5] = HPLM + 10% dialyzed FBS, 0.0632 µM
[6] = HPLM + 10% dialyzed FBS, 0.19 µM
[7] = HPLM + 10% dialyzed FBS, 0.569 µM
[8] = HPLM + 10% dialyzed FBS, 1.71 µM
[9] = HPLM + 10% dialyzed FBS, 5.12 µM
[10] = HPLM + 10% dialyzed FBS, 15.4 µM
[11] = HPLM + 10% dialyzed FBS, 46.1 µM
[12] = RPMI 5 mM glucose + 10% FBS, 0.000781 µM
[13] = RPMI 5 mM glucose + 10% FBS, 0.00234 µM
[14] = RPMI 5 mM glucose + 10% FBS, 0.00702 µM
[15] = RPMI 5 mM glucose + 10% FBS, 0.0211 µM
[16] = RPMI 5 mM glucose + 10% FBS, 0.0632 µM
[17] = RPMI 5 mM glucose + 10% FBS, 0.19 µM
[18] = RPMI 5 mM glucose + 10% FBS, 0.569 µM
[19] = RPMI 5 mM glucose + 10% FBS, 1.71 µM
[20] = RPMI 5 mM glucose + 10% FBS, 5.12 µM
[21] = RPMI 5 mM glucose + 10% FBS, 15.4 µM
[22] = RPMI 5 mM glucose + 10% FBS, 46.1 µM
[23] = RPMI 5 mM glucose + 10% dialyzed FBS, 0.000781 µM
[24] = RPMI 5 mM glucose + 10% dialyzed FBS, 0.00234 µM
[25] = RPMI 5 mM glucose + 10% dialyzed FBS, 0.00702 µM
[26] = RPMI 5 mM glucose + 10% dialyzed FBS, 0.0211 µM
[27] = RPMI 5 mM glucose + 10% dialyzed FBS, 0.0632 µM
[28] = RPMI 5 mM glucose + 10% dialyzed FBS, 0.19 µM
[29] = RPMI 5 mM glucose + 10% dialyzed FBS, 0.569 µM
[30] = RPMI 5 mM glucose + 10% dialyzed FBS, 1.71 µM
[31] = RPMI 5 mM glucose + 10% dialyzed FBS, 5.12 µM
[32] = RPMI 5 mM glucose + 10% dialyzed FBS, 15.4 µM
[33] = RPMI 5 mM glucose + 10% dialyzed FBS, 46.1 µM

SMILES | cell viability [1] | cell viability [2] | cell viability [3] | cell viability [4] | cell viability [5] | cell viability [6] | cell viability [7] | cell viability [8] | cell viability [9] | cell viability [10] | cell viability [11] | cell viability [12] | cell viability [13] | cell viability [14] | cell viability [15] | cell viability [16] | cell viability [17] | cell viability [18] | cell viability [19] | cell viability [20] | cell viability [21] | cell viability [22] | cell viability [23] | cell viability [24] | cell viability [25] | cell viability [26] | cell viability [27] | cell viability [28] | cell viability [29] | cell viability [30] | cell viability [31] | cell viability [32] | cell viability [33]
C/C=C(\C)C(=O)N[C@@H](c1ccccc1)[C@@H](O)C(=O)O[C@H]1C[C@@]2(O)[C@@H](OC(=O)c3ccccc3)[C@@H]3[C@]4(OC(C)=O)CO[C@@H]4C[C@H](O)[C@@]3(C)C(=O)[C@H](OC(C)=O)C(=C1C)C2(C)C | 45.3% | 23.3% | 25.7% | 15.9% | 22.2% | 19% | 21.4% | 20.3% | 19% | 19% | 14.2% | 46.4% | 20.9% | 25.7% | 13.8% | 15.1% | 17.2% | 16.8% | 16.6% | 13% | 13% | 10.6% | 49.5% | 27.8% | 32.8% | 23% | 23% | 23.4% | 30.4% | 28.5% | 24.6% | 24.8% | 21.1%
c1coc(CNc2ncnc3nc[nH]c23)c1 | – | – | – | – | – | – | – | – | – | – | – | – | – | – | – | – | – | – | – | – | – | – | 123% | 132% | 116% | 122% | 131% | 131% | 130% | 127% | 122% | 115% | 105%
Clc1ccc(C(c2ccc(Cl)cc2)[n+]2ccn(CC(OCc3ccc(Cl)cc3Cl)c3ccc(Cl)cc3Cl)c2)cc1 (stereo not given) | 115% | 112% | 109% | 104% | 113% | 117% | 110% | 98.1% | 102% | 70.6% | 47.1% | 129% | 113% | 115% | 110% | 115% | 115% | 113% | 100% | 105% | 70.2% | 21% | – | – | – | – | – | – | – | – | – | – | –
O=c1oc2cc(O)ccc2s1 | 114% | 115% | 111% | 115% | 116% | 117% | 115% | 110% | 108% | 106% | 104% | 115% | 131% | 95.8% | 116% | 117% | 116% | 117% | 107% | 108% | 107% | 96.8% | 104% | 126% | 109% | 112% | 111% | 116% | 114% | 104% | 100% | 103% | 85.9%
NCCOc1cc(C(=O)Nc2cc(OCCN)c3ccccc3n2)nc(C(=O)Nc2cc(OCCN)c3ccccc3n2)c1 | 44.2% | 13.1% | 12.7% | 12.8% | 14.1% | 12.8% | 13.3% | 9.79% | 7.51% | 21.5% | 61.7% | 113% | 120% | 113% | 19% | 17.4% | 17% | 15.7% | 16% | 16.7% | 24.4% | 68.8% | – | – | – | – | – | – | – | – | – | – | –
CCOc1ccccc1N/N=C1/C(=O)N(c2nc(-c3ccccc3)cs2)N=C1C | 111% | 114% | 114% | 115% | 114% | 108% | 104% | 101% | 103% | 86.4% | 67% | 115% | 108% | 108% | 121% | 116% | 120% | 112% | 106% | 114% | 98.9% | 97% | 113% | 118% | 110% | 116% | 113% | 108% | 109% | 105% | 106% | 94.6% | 94.6%
COCC(=O)NC/C=C/c1ccc2ncnc(Nc3ccc(Oc4ccc(C)nc4)c(C)c3)c2c1 | 99.6% | 99.3% | 101% | 107% | 101% | 92.3% | 103% | 98.6% | 95.7% | 93.1% | 64.5% | 91.7% | 112% | 106% | 105% | 105% | 100% | 91.5% | 101% | 81.6% | 77.2% | 43.1% | 102% | 109% | 115% | 113% | 105% | 99% | 97.9% | 101% | 88% | 79.7% | 51.5%
O=C(O)c1cccnc1 | 107% | 107% | 115% | 114% | 106% | 107% | 106% | 96.1% | 68.9% | 47.1% | 35.8% | 113% | 112% | 126% | 113% | 118% | 119% | 117% | 110% | 99.7% | 55.8% | 30.9% | 110% | 112% | 106% | 108% | 108% | 102% | 105% | 98.2% | 76.5% | 33.4% | 9.03%
